# Reference: ChEMBL document CHEMBL3297727, “Endiandric acid analogues from Beilschmiedia ferruginea as dual inhibitors of Bcl-xL/Bak and Mcl-1/Bid interactions” (J Nat Prod, 2014)
# Calls of active or inactive are those of the source. The rule behind the calls is not given here.
# Experiments:
# Bcl-2-like protein 1 [1] = molecular target: T1, Bcl-2-like protein 1 (Homo sapiens, UniProt Q07817); experiment: Displacement of fluorescein-labeled BAK from His-tagged BCL-XL (unknown origin) after 1 hr by fluorescence polarization assay
# [2] = molecular target: T2, Induced myeloid leukemia cell differentiation protein Mcl-1 (Homo sapiens, UniProt Q07820); experiment: Displacement of fluorescein-labeled BID from His-tagged MCL-1 (unknown origin) after 1 hr by fluorescence polarization assay
# K562 [3] = experiment: Cytotoxicity against human K562 cells up to 50 uM after 72 hrs by resazurin-based fluorimetric assay; type: functional, cell-based
# [4] = Drug degradation in DMSO assessed as autoxidation at 4 degC incubated under dark condition for 6 months; type: physicochemical; conditions: 4383 h
# [5] = molecular target: T2, Induced myeloid leukemia cell differentiation protein Mcl-1; experiment: Displacement of fluorescein-labeled BID from His-tagged MCL-1 (unknown origin) at 100 uM after 1 hr by fluorescence polarization assay relative to control
# Bcl-2-like protein 1 [6] = molecular target: T1, Bcl-2-like protein 1; experiment: Displacement of fluorescein-labeled BAK from His-tagged BCL-XL (unknown origin) at 100 uM after 1 hr by fluorescence polarization assay relative to control
# HCT-116 = experiment: Cytotoxicity against human HCT116 cells up to 50 uM after 72 hrs by resazurin-based fluorimetric assay; type: functional, cell-based
# K562 [7] = experiment: Cytotoxicity against human K562 cells after 72 hrs by resazurin-based fluorimetric assay; type: functional, cell-based; conditions: K562, 72 h
# [8] = Cytotoxicity against human HCT116 cells after 72 hrs by resazurin-based fluorimetric assay; type: functional, cell-based; conditions: HCT-116, 72 h
# [9] = Drug degradation assessed as conversion to ferrugineic acid F and ferrugineic acid G at 4 degC incubated under dark condition for 3 to 6 months; type: physicochemical
# [10] = Drug degradation assessed as conversion to ferrugineic acid F and ferrugineic acid G under diffuse daylight condition at 25 degC for 1 month; type: physicochemical; conditions: 730.5 h
# [11] = Drug degradation assessed as conversion to ferrugineic acid H and ferrugineic acid I at 4 degC incubated under dark condition for 3 to 6 months; type: physicochemical
# [12] = Drug degradation assessed as conversion to ferrugineic acid H and ferrugineic acid I under diffuse daylight condition at 25 degC for 1 month; type: physicochemical; conditions: 730.5 h
# T2 sequence (Q07820 whole entry): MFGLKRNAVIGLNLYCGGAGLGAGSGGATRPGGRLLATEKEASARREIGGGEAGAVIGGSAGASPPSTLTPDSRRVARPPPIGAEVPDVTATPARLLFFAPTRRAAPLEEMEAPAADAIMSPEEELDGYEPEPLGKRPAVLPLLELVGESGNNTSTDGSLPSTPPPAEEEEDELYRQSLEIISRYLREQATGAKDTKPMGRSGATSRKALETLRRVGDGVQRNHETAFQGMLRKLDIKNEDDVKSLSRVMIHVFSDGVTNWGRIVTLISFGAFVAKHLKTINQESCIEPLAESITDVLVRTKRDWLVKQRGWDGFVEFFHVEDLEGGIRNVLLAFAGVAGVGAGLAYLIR
# T1 sequence (Q07817 whole entry): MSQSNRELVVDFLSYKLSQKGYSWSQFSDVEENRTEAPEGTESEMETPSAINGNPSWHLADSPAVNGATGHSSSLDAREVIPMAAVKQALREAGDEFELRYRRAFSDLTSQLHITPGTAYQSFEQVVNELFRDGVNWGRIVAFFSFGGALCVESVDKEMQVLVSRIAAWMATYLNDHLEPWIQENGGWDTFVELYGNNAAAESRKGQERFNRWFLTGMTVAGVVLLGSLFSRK
Ki (Bcl-2-like protein 1 [1]) [µM],Ki [2] [µM],inhibition [5] [%],inhibition (Bcl-2-like protein 1 [6]) [%],Stability [9],Stability [10],Stability [11],Stability [12],SMILES,Activity (K562 [3]),Stability [4],Activity (HCT-116),IC50 (K562 [7]) [µM],IC50 [8] [µM]
19.2,14,85,60,Unstable,Unstable,Unstable,Unstable,O=C(O)[C@@H]1C=C[C@@H]2C[C@H]3[C@H](CCCCCc4ccc(O)cc4)[C@H]4C=C[C@@H]1[C@@H]2[C@H]43 (relative stereo),inactive,Stable,inactive,,
> 100,,0,22,Unstable,Unstable,Unstable,Unstable,O=C(O)[C@@H]1C=C[C@@H]2C[C@H]3[C@H](CCCc4ccc(O)cc4)[C@H]4C=C[C@@H]1[C@@H]2[C@H]43 (relative stereo),inactive,Stable,inactive,,
> 100,5.2,82,39,,,,,O=C(O)[C@@H]1C=C[C@@H]2C[C@H]3[C@H](CCCc4ccc(O)c(O)c4)[C@H]4C=C[C@@H]1[C@@H]2[C@H]43 (relative stereo),inactive,Stable,inactive,,

# Continued, compound first:
SMILES,Ki (Bcl-2-like protein 1 [1]) [µM],Ki [2] [µM],inhibition [5] [%],inhibition (Bcl-2-like protein 1 [6]) [%],Stability [9],Stability [10],Stability [11],Stability [12],Activity (K562 [3]),Stability [4],Activity (HCT-116),IC50 (K562 [7]) [µM],IC50 [8] [µM]
O=C(O)[C@@H]1C=C[C@@H]2C[C@H]3[C@H](CCCCCCCc4ccc(O)cc4)[C@H]4C=C[C@@H]1[C@@H]2[C@H]43 (relative stereo),12.6,13,82,93,,,,,inactive,Stable,inactive,,
CCC1=C[C@@H]2CN(C1)Cc1c([nH]c3ccccc13)[C@@](C(=O)OC)(c1cc3c(cc1OC)N(C)[C@H]1[C@@](O)(C(=O)OC)[C@H](OC(C)=O)[C@]4(CC)C=CCN5CC[C@]31[C@@H]54)C2 [VINORELBINE],,,,,,,,,,,,0.006,0.015
O=C(O)C1=CC(=O)[C@@H]2C[C@H]3[C@H](CCCc4ccc(O)cc4)[C@H]4C=C[C@@H]1[C@@H]2[C@H]43 (relative stereo),,,,,,,,,inactive,,inactive,,
O=C(O)C1=C[C@H](O)[C@@H]2C[C@H]3[C@H](CCCCCc4ccc(O)cc4)[C@H]4C=C[C@@H]1[C@@H]2[C@H]43 (relative stereo),,,3,,,,,,,,,,
O=C(O)[C@@H]1C=C[C@@H]2C[C@H]3[C@H](CC/C=C/Cc4ccc(O)cc4)[C@H]4C=C[C@@H]1[C@@H]2[C@H]43 (relative stereo),,,14,20,,,,,inactive,Stable,inactive,,
O=C(O)C1=C[C@@H](O)[C@@H]2C[C@H]3[C@H](CCCc4ccc(O)cc4)[C@H]4C=C[C@@H]1[C@@H]2[C@H]43 (relative stereo),,,0,7,,,,,inactive,,inactive,,
O=C(O)/C=C/[C@H]1[C@H]2C=C[C@H]3[C@@H]1C[C@H]1[C@H](CCCc4ccc(O)cc4)[C@@H]2[C@@H]31 (relative stereo),> 100,,0,22,,,,,inactive,,inactive,,
